Test results from ChEMBL document CHEMBL2396526, “Chromenylchalcones showing cytotoxicity on human colon cancer cell lines and in silico docking with aurora kinases” (Bioorg Med Chem, 2013).
Calls of active or inactive are those of the source. The calls are words filed in the database; no cut-off is given here.

Experiments:
HCT-116 [1] = test: Cell cycle arrest in human HCT116 cells assessed as accumulation at G1 phase at 20 uM after 48 hrs by propidium iodide staining-based flow cytometric analysis (reference value: 2.9%); type: functional
HCT-116 [2] = test: Cytotoxicity against human HCT116 cells assessed as cell survival at 5 to 40 uM after 7 days by crystal violet staining assay; type: functional, cell-based; details: HCT-116, 168 h
HCT-116 [3] = test: Cell cycle arrest in human HCT116 cells assessed as accumulation at G1 phase at 20 uM after 12 hrs by propidium iodide staining-based flow cytometric analysis (reference value: 48.2%); type: functional
[4] = target: T1, Ephrin type-B receptor 3 (Homo sapiens) (UniProt P54753); test: Inhibition of human EphB
T1 sequence (whole entry): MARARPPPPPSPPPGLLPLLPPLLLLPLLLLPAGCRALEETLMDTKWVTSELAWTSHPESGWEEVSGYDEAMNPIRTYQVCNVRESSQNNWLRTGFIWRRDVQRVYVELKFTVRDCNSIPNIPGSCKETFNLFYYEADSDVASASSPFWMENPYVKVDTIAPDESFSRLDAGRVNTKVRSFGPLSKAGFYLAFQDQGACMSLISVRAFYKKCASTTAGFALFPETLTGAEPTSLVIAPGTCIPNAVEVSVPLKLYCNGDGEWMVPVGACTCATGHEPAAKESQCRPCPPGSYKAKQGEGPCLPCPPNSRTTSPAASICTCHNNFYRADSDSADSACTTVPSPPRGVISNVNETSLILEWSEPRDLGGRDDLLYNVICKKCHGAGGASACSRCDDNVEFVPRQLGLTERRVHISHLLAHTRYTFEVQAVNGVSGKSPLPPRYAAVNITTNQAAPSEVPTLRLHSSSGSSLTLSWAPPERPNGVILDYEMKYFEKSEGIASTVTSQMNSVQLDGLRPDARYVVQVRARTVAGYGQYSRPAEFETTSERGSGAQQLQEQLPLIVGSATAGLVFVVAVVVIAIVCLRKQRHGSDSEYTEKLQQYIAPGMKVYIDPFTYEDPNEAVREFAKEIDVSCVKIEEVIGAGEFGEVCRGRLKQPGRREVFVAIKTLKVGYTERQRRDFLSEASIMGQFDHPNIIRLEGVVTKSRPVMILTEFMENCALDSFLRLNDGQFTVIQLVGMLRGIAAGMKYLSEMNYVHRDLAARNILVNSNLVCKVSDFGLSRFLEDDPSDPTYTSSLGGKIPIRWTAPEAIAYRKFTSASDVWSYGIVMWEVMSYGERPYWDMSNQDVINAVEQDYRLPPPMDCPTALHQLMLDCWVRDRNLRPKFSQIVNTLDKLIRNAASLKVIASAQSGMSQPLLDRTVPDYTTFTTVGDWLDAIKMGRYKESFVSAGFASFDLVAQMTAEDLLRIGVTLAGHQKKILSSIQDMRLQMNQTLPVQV

[5] = target: Aurora kinase B (Homo sapiens) (UniProt Q96GD4); test: Inhibition of human aurora-B; details: concentration not given here
HCT-116 [6] = test: Cell cycle arrest in human HCT116 cells assessed as accumulation at G1 phase at 20 uM after 24 hrs by propidium iodide staining-based flow cytometric analysis (reference value: 2.9%); type: functional
HCT-116 [7] = test: Cell cycle arrest in human HCT116 cells assessed as accumulation at S phase at 20 uM after 12 hrs by propidium iodide staining-based flow cytometric analysis (reference value: 26.9%); type: functional
HCT-116 [8] = test: Induction of apoptosis in human HCT116 cells assessed as early apoptotic cells at 20 uM after 24 hrs by annexin V-FITC/propidium iodide staining-based flow cytometric analysis (reference value: 22%); type: functional
[9] = target: [Pyruvate dehydrogenase (acetyl-transferring)] kinase isozyme 1, mitochondrial (Homo sapiens) (UniProt Q15118); test: Inhibition of human PDK1
HCT-116 [10] = test: Induction of apoptosis in human HCT116 cells assessed as DNA content at sub-G1 phase at 20 uM after 24 hrs by annexin V-FITC/propidium iodide staining-based flow cytometric analysis (reference value: 92%); type: functional
HCT-116 [11] = test: Induction of apoptosis in human HCT116 cells assessed as PARP cleavage at 20 uM after 24 to 48 hrs by Western blot analysis; type: functional, cell-based
HCT-116 [12] = test: Cell cycle arrest in human HCT116 cells assessed as accumulation at sub-G1 phase at 20 uM after 12 hrs by propidium iodide staining-based flow cytometric analysis (reference value: 2.9%); type: functional
[13] = target: Vascular endothelial growth factor receptor 2 (Homo sapiens) (UniProt P35968); test: Inhibition of human KDR
HCT-116 [14] = test: Induction of apoptosis in human HCT116 cells assessed as viable cells at 20 uM after 24 hrs by annexin V-FITC/propidium iodide staining-based flow cytometric analysis (reference value: 71 %); type: functional; details: HCT-116, 24 h, read-out: Activity
HCT-116 [15] = test: Cell cycle arrest in human HCT116 cells assessed as accumulation at sub-G1 phase at 20 uM by propidium iodide staining-based flow cytometric analysis; type: functional; details: TDE = time-dependent effect
HCT-116 [16] = test: Induction of apoptosis in human HCT116 cells assessed as late apoptotic cells at 20 uM after 24 hrs by annexin V-FITC/propidium iodide staining-based flow cytometric analysis (reference value: 5%); type: functional
HCT-116 [17] = test: Cell cycle arrest in human HCT116 cells assessed as accumulation at G2/M phase at 20 uM after 12 hrs by propidium iodide staining-based flow cytometric analysis (reference value: 20.8%); type: functional
[18] = target: T2, Aurora kinase A (Homo sapiens) (UniProt O14965); test: Inhibition of human aurora-A; details: concentration not given here
T2 sequence (whole entry): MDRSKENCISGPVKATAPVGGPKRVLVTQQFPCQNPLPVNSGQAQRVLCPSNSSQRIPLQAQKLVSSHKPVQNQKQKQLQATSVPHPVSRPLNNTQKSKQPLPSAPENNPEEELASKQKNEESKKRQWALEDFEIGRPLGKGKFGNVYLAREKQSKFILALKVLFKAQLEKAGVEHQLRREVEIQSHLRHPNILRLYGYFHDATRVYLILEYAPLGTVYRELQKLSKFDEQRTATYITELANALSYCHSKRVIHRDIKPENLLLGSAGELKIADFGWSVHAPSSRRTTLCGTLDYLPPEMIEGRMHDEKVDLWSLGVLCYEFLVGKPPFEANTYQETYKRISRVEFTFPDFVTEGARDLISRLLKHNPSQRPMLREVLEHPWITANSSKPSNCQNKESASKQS

HCT-116 [19] = test: Cell cycle arrest in human HCT116 cells assessed as accumulation at sub-G1 phase at 20 uM after 48 hrs by propidium iodide staining-based flow cytometric analysis (reference value: 2.9%); type: functional
HCT-116 [20] = test: Induction of apoptosis in human HCT116 cells assessed as appearance of cleaved caspase-7 at fragmented chromosomes at 20 uM after 24 hrs by Hoechst 33258 staining-based fluorescence microscopic analysis; type: functional, cell-based
HCT-116 [21] = test: Cell cycle arrest in human HCT116 cells assessed as accumulation at G2/M phase at 20 uM after 24 hrs by propidium iodide staining-based flow cytometric analysis (reference value: 2.9%); type: functional
HCT-116 [22] = test: Cell cycle arrest in human HCT116 cells assessed as accumulation at S phase at 20 uM after 48 hrs by propidium iodide staining-based flow cytometric analysis (reference value: 2.9%); type: functional

Chain of Aurora kinase B (Homo sapiens) (Q96GD4 whole entry): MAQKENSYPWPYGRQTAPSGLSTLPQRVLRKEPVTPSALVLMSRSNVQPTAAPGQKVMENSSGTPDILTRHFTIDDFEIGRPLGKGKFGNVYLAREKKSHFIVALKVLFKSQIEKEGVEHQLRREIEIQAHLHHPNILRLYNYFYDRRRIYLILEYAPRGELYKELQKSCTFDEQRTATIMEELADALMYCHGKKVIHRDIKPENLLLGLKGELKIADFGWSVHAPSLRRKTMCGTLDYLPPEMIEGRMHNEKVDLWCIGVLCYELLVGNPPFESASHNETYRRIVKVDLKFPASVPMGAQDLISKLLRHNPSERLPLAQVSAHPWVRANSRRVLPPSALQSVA
Chain of Vascular endothelial growth factor receptor 2 (Homo sapiens) (P35968 whole entry): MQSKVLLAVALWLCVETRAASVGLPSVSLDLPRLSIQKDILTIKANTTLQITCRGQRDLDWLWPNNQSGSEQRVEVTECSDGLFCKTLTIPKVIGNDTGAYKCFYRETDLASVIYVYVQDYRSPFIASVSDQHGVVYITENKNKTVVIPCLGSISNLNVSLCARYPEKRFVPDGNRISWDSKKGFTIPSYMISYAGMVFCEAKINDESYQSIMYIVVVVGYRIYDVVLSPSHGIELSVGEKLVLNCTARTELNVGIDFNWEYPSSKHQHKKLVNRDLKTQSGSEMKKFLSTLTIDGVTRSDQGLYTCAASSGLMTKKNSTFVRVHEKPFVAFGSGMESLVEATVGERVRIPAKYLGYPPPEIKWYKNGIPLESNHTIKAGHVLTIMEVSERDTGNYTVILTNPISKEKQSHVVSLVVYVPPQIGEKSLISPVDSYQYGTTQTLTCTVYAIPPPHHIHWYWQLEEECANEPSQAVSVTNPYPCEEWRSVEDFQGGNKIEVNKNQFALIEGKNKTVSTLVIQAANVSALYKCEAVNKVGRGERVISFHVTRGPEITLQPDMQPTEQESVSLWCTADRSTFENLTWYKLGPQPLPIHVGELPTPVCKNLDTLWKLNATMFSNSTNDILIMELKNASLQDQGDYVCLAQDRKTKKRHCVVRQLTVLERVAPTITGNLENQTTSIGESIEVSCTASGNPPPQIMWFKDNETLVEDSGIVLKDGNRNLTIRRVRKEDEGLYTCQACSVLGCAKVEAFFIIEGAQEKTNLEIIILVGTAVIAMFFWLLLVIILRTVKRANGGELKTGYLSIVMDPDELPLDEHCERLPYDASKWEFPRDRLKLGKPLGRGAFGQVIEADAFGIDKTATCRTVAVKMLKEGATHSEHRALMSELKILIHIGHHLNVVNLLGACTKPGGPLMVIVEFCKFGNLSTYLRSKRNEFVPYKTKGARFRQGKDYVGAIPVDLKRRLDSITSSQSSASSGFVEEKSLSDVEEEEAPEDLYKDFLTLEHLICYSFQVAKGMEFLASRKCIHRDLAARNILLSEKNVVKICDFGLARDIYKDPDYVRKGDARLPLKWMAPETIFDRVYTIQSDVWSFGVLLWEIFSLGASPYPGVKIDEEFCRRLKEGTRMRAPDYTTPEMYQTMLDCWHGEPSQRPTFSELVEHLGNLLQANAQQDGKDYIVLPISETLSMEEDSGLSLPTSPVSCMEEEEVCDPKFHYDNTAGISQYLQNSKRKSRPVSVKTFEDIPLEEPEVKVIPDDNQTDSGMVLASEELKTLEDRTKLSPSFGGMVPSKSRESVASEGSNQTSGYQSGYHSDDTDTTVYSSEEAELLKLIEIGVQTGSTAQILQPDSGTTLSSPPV

With `COc1ccc2c(c1)C=C(C(=O)/C=C/c1c(OC)cc(OC)cc1OC)CO2` as the compound, how does the Activity (HCT-116 [1]) read?
The Activity was 29.5%.

What about the IC50 (HCT-116 [2]) of the same compound?
The IC50 was 93 nM.

And the Activity (HCT-116 [3])?
Its Activity is 18.9%.

And the inhibition [4]?
The inhibition was “inactive”.

And the inhibition [5]?
The inhibition was 65%.

What about the Activity (HCT-116 [6]) of the same compound?
Its Activity is 23.1%.

And the Activity (HCT-116 [7])?
Its Activity is 19.6%.

And the Activity (HCT-116 [8])?
Its Activity is 86%.

What about the inhibition [9] of the same compound?
The inhibition was “inactive”.

And the Activity (HCT-116 [10])?
Its Activity is 1%.

And the Activity (HCT-116 [11])?
Its Activity is “Active”.

And the Activity (HCT-116 [12])?
Its Activity is 15.1%.

And the inhibition [13]?
Its inhibition is “inactive”.

And the viability at 20 µM (HCT-116 [14])?
Its viability at 20 µM is 0%.

And the Activity (HCT-116 [15])?
The Activity was “tde”.

And the Activity (HCT-116 [16])?
The Activity was 14%.

What about the Activity (HCT-116 [17]) of the same compound?
The Activity was 44.2%.

What about the inhibition [18] of the same compound?
The inhibition was 69%.

What about the Activity (HCT-116 [19]) of the same compound?
Its Activity is 45.3%.

And the Activity (HCT-116 [20])?
The Activity was “Active”.

And the Activity (HCT-116 [21])?
Its Activity is 21.5%.

And the Activity (HCT-116 [22])?
Its Activity is 13.2%.
